Experimental data from the NIST ThermoML archive (doi:10.1016/j.jct.2015.08.014).
Numbers after ± are expanded uncertainties.

Assay: xn = mol fraction of the nth substance listed
Settings: 283.15 K, 100 kPa, Liquid, Alternating current cell with electrodes

## CCCC[N+]1(C)CCCC1.N#CN=C=[N-] [1-butyl-1-methylpyrrolidinium dicyanamide] + O=C1CCCO1
Frequency=0.003 MHz, x1 = 0.1859
  electrical conductivity: 2.028 ± 0.02 S/m
Frequency=0.003 MHz, x1 = 0.2493
  electrical conductivity: 1.925 ± 0.019 S/m
Frequency=0.003 MHz, x1 = 0.3029
  electrical conductivity: 1.84 ± 0.019 S/m
Frequency=0.003 MHz, x1 = 0.3845
  electrical conductivity: 1.66 ± 0.017 S/m
Frequency=0.003 MHz, x1 = 0.4985
  electrical conductivity: 1.407 ± 0.014 S/m
Frequency=0.003 MHz, x1 = 0.6954
  electrical conductivity: 1.07 ± 0.01 S/m
Frequency=0.003 MHz, x1 = 0.9013
  electrical conductivity: 0.849 ± 0.009 S/m
Frequency=0.003 MHz, x1 = 1
  electrical conductivity: 0.786 ± 0.008 S/m
Frequency=0.00347222 MHz, x1 = 0.0463
  electrical conductivity: 1.17 ± 0.02 S/m
Frequency=0.00347222 MHz, x1 = 0.0987
  electrical conductivity: 1.73 ± 0.021 S/m
Frequency=0.00347222 MHz, x1 = 0.1449
  electrical conductivity: 1.93 ± 0.02 S/m
Frequency=0.00347222 MHz, x1 = 0.1859
  electrical conductivity: 2.028 ± 0.02 S/m
Frequency=0.00347222 MHz, x1 = 0.2493
  electrical conductivity: 1.925 ± 0.019 S/m
Frequency=0.00347222 MHz, x1 = 0.3029
  electrical conductivity: 1.84 ± 0.019 S/m
Frequency=0.00347222 MHz, x1 = 0.3845
  electrical conductivity: 1.66 ± 0.017 S/m
Frequency=0.00347222 MHz, x1 = 0.4985
  electrical conductivity: 1.407 ± 0.014 S/m
Frequency=0.00347222 MHz, x1 = 0.6954
  electrical conductivity: 1.07 ± 0.01 S/m
Frequency=0.00347222 MHz, x1 = 0.9013
  electrical conductivity: 0.849 ± 0.009 S/m
Frequency=0.00347222 MHz, x1 = 1
  electrical conductivity: 0.786 ± 0.008 S/m
Frequency=0.004 MHz, x1 = 0.0463
  electrical conductivity: 1.17 ± 0.02 S/m
Frequency=0.004 MHz, x1 = 0.0987
  electrical conductivity: 1.73 ± 0.021 S/m
Frequency=0.004 MHz, x1 = 0.1449
  electrical conductivity: 1.93 ± 0.02 S/m
Frequency=0.004 MHz, x1 = 0.1859
  electrical conductivity: 2.028 ± 0.02 S/m
Frequency=0.004 MHz, x1 = 0.2493
  electrical conductivity: 1.926 ± 0.019 S/m
Frequency=0.004 MHz, x1 = 0.3029
  electrical conductivity: 1.84 ± 0.019 S/m
Frequency=0.004 MHz, x1 = 0.3845
  electrical conductivity: 1.66 ± 0.017 S/m
Frequency=0.004 MHz, x1 = 0.4985
  electrical conductivity: 1.407 ± 0.014 S/m
Frequency=0.004 MHz, x1 = 0.6954
  electrical conductivity: 1.07 ± 0.01 S/m
Frequency=0.004 MHz, x1 = 0.9013
  electrical conductivity: 0.849 ± 0.009 S/m
Frequency=0.004 MHz, x1 = 1
  electrical conductivity: 0.786 ± 0.008 S/m
Frequency=0.00446429 MHz, x1 = 0.0463
  electrical conductivity: 1.17 ± 0.02 S/m
Frequency=0.00446429 MHz, x1 = 0.0987
  electrical conductivity: 1.73 ± 0.021 S/m
Frequency=0.00446429 MHz, x1 = 0.1449
  electrical conductivity: 1.93 ± 0.02 S/m
Frequency=0.00446429 MHz, x1 = 0.1859
  electrical conductivity: 2.028 ± 0.02 S/m
Frequency=0.00446429 MHz, x1 = 0.2493
  electrical conductivity: 1.926 ± 0.019 S/m
Frequency=0.00446429 MHz, x1 = 0.3029
  electrical conductivity: 1.84 ± 0.019 S/m
Frequency=0.00446429 MHz, x1 = 0.3845
  electrical conductivity: 1.66 ± 0.017 S/m
Frequency=0.00446429 MHz, x1 = 0.4985
  electrical conductivity: 1.407 ± 0.014 S/m
Frequency=0.00446429 MHz, x1 = 0.6954
  electrical conductivity: 1.07 ± 0.01 S/m
Frequency=0.00446429 MHz, x1 = 0.9013
  electrical conductivity: 0.849 ± 0.009 S/m
Frequency=0.00446429 MHz, x1 = 1
  electrical conductivity: 0.786 ± 0.008 S/m
Frequency=0.005 MHz, x1 = 0.0463
  electrical conductivity: 1.17 ± 0.02 S/m
Frequency=0.005 MHz, x1 = 0.0987
  electrical conductivity: 1.73 ± 0.021 S/m
Frequency=0.005 MHz, x1 = 0.1449
  electrical conductivity: 1.93 ± 0.02 S/m
Frequency=0.005 MHz, x1 = 0.1859
  electrical conductivity: 2.028 ± 0.02 S/m
Frequency=0.005 MHz, x1 = 0.2493
  electrical conductivity: 1.926 ± 0.019 S/m
Frequency=0.005 MHz, x1 = 0.3029
  electrical conductivity: 1.84 ± 0.019 S/m
Frequency=0.005 MHz, x1 = 0.3845
  electrical conductivity: 1.66 ± 0.017 S/m
Frequency=0.005 MHz, x1 = 0.4985
  electrical conductivity: 1.407 ± 0.014 S/m
Frequency=0.005 MHz, x1 = 0.6954
  electrical conductivity: 1.07 ± 0.01 S/m
Frequency=0.005 MHz, x1 = 0.9013
  electrical conductivity: 0.849 ± 0.009 S/m
Frequency=0.005 MHz, x1 = 1
  electrical conductivity: 0.786 ± 0.008 S/m
Frequency=0.005454 MHz, x1 = 0.0463
  electrical conductivity: 1.17 ± 0.02 S/m
Frequency=0.005454 MHz, x1 = 0.0987
  electrical conductivity: 1.73 ± 0.021 S/m
Frequency=0.005454 MHz, x1 = 0.1449
  electrical conductivity: 1.93 ± 0.02 S/m
Frequency=0.005454 MHz, x1 = 0.1859
  electrical conductivity: 2.028 ± 0.02 S/m
Frequency=0.005454 MHz, x1 = 0.2493
  electrical conductivity: 1.926 ± 0.019 S/m
Frequency=0.005454 MHz, x1 = 0.3029
  electrical conductivity: 1.84 ± 0.019 S/m
Frequency=0.005454 MHz, x1 = 0.3845
  electrical conductivity: 1.66 ± 0.017 S/m
Frequency=0.005454 MHz, x1 = 0.4985
  electrical conductivity: 1.407 ± 0.014 S/m
Frequency=0.005454 MHz, x1 = 0.6954
  electrical conductivity: 1.07 ± 0.01 S/m
Frequency=0.005454 MHz, x1 = 0.9013
  electrical conductivity: 0.849 ± 0.009 S/m
Frequency=0.005454 MHz, x1 = 1
  electrical conductivity: 0.786 ± 0.008 S/m
Frequency=0.006 MHz, x1 = 0.0463
  electrical conductivity: 1.17 ± 0.02 S/m
Frequency=0.006 MHz, x1 = 0.0987
  electrical conductivity: 1.73 ± 0.021 S/m
Frequency=0.006 MHz, x1 = 0.1449
  electrical conductivity: 1.93 ± 0.02 S/m
Frequency=0.006 MHz, x1 = 0.1859
  electrical conductivity: 2.028 ± 0.02 S/m
Frequency=0.006 MHz, x1 = 0.2493
  electrical conductivity: 1.926 ± 0.019 S/m
Frequency=0.006 MHz, x1 = 0.3029
  electrical conductivity: 1.84 ± 0.019 S/m
Frequency=0.006 MHz, x1 = 0.3845
  electrical conductivity: 1.66 ± 0.017 S/m
Frequency=0.006 MHz, x1 = 0.4985
  electrical conductivity: 1.407 ± 0.014 S/m
Frequency=0.006 MHz, x1 = 0.6954
  electrical conductivity: 1.07 ± 0.01 S/m
Frequency=0.006 MHz, x1 = 0.9013
  electrical conductivity: 0.849 ± 0.009 S/m
Frequency=0.006 MHz, x1 = 1
  electrical conductivity: 0.786 ± 0.008 S/m
Frequency=0.00652174 MHz, x1 = 0.0463
  electrical conductivity: 1.17 ± 0.02 S/m
Frequency=0.00652174 MHz, x1 = 0.0987
  electrical conductivity: 1.73 ± 0.021 S/m
Frequency=0.00652174 MHz, x1 = 0.1449
  electrical conductivity: 1.93 ± 0.02 S/m
Frequency=0.00652174 MHz, x1 = 0.1859
  electrical conductivity: 2.028 ± 0.02 S/m
Frequency=0.00652174 MHz, x1 = 0.2493
  electrical conductivity: 1.926 ± 0.019 S/m
Frequency=0.00652174 MHz, x1 = 0.3029
  electrical conductivity: 1.84 ± 0.019 S/m
Frequency=0.00652174 MHz, x1 = 0.3845
  electrical conductivity: 1.66 ± 0.017 S/m
Frequency=0.00652174 MHz, x1 = 0.4985
  electrical conductivity: 1.407 ± 0.014 S/m
Frequency=0.00652174 MHz, x1 = 0.6954
  electrical conductivity: 1.07 ± 0.01 S/m
Frequency=0.00652174 MHz, x1 = 0.9013
  electrical conductivity: 0.849 ± 0.009 S/m
Frequency=0.00652174 MHz, x1 = 1
  electrical conductivity: 0.786 ± 0.008 S/m
Frequency=0.00694444 MHz, x1 = 0.0463
  electrical conductivity: 1.17 ± 0.02 S/m
Frequency=0.00694444 MHz, x1 = 0.0987
  electrical conductivity: 1.73 ± 0.021 S/m
Frequency=0.00694444 MHz, x1 = 0.1449
  electrical conductivity: 1.93 ± 0.02 S/m
Frequency=0.00694444 MHz, x1 = 0.1859
  electrical conductivity: 2.028 ± 0.02 S/m
Frequency=0.00694444 MHz, x1 = 0.2493
  electrical conductivity: 1.926 ± 0.019 S/m
Frequency=0.00694444 MHz, x1 = 0.3029
  electrical conductivity: 1.84 ± 0.019 S/m
Frequency=0.00694444 MHz, x1 = 0.3845
  electrical conductivity: 1.66 ± 0.017 S/m
Frequency=0.00694444 MHz, x1 = 0.4985
  electrical conductivity: 1.407 ± 0.014 S/m
Frequency=0.00694444 MHz, x1 = 0.6954
  electrical conductivity: 1.07 ± 0.01 S/m
Frequency=0.00694444 MHz, x1 = 0.9013
  electrical conductivity: 0.849 ± 0.009 S/m
Frequency=0.00694444 MHz, x1 = 1
  electrical conductivity: 0.786 ± 0.008 S/m
Frequency=0.0075 MHz, x1 = 0.0463
  electrical conductivity: 1.17 ± 0.02 S/m
Frequency=0.0075 MHz, x1 = 0.0987
  electrical conductivity: 1.73 ± 0.021 S/m
Frequency=0.0075 MHz, x1 = 0.1449
  electrical conductivity: 1.93 ± 0.02 S/m
Frequency=0.0075 MHz, x1 = 0.1859
  electrical conductivity: 2.028 ± 0.02 S/m
Frequency=0.0075 MHz, x1 = 0.2493
  electrical conductivity: 1.926 ± 0.019 S/m
Frequency=0.0075 MHz, x1 = 0.3029
  electrical conductivity: 1.84 ± 0.019 S/m
Frequency=0.0075 MHz, x1 = 0.3845
  electrical conductivity: 1.66 ± 0.017 S/m
Frequency=0.0075 MHz, x1 = 0.4985
  electrical conductivity: 1.407 ± 0.014 S/m
Frequency=0.0075 MHz, x1 = 0.6954
  electrical conductivity: 1.07 ± 0.01 S/m
Frequency=0.0075 MHz, x1 = 0.9013
  electrical conductivity: 0.849 ± 0.009 S/m
Frequency=0.0075 MHz, x1 = 1
  electrical conductivity: 0.786 ± 0.008 S/m
